Data reported in PubChem BioAssay AID493059 (The Scripps Research Institute Molecular Screening Center, 2011).
Activity calls are given as the source filed them.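 How the source made its calls: active means share of cells pushed into apoptosis exceeding a set limit, after 48 hr at 25 µM; inactive means the rest.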

System: 2B4 cells apoptosis, DAPI nuclear morphology
Test: pro-apoptotic activity by DAPI nuclear scoring – imaging, DAPI fluorescence, 2B4 cells, MCL1-BIM inhibitor project, late-stage follow-up (AID 493059)
Conditions: not given

SMILES | outcome
Cc1ccc(C(=O)O)cc1-c1ccc(/C=C2\SC(=O)N(CC(=O)Nc3ccc4c(c3)OCO4)C2=O)o1 | inactive
Cc1cc(NC(=O)Cc2cccs2)no1 | inactive
O=C(/C=C/c1ccc(Cl)c([N+](=O)[O-])c1)Nc1ccc(N2CCCC2)cc1 | inactive

Same assay, conditions: at 25 µM; stronger effect = higher value

SMILES | apoptosis
Nc1ccc(C(=O)NN=Cc2cc(N=Nc3cccc4ccccc34)ccc2O)cc1 | 15%
C=CCN=c1scc(-c2ccco2)n1/N=C/c1ccc(O)c(O)c1O | 98%
Cc1cccc(NC(=O)CNC(=O)c2cccc(-n3cccc3)c2)c1C | 1.9% (inactive)
CC(C)n1c(SCC(=O)Nc2nncs2)nnc1-c1ccco1 | 0% (inactive)
O=C1COc2ccc(C(=O)COC(=O)/C=C/c3ccc(Br)o3)cc2N1 | 3.4% (inactive)
O=C(NN=Cc1cccc(F)c1)c1cc(-c2ccco2)nc2ccccc12 | 3% (inactive)
O=C(NN=Cc1ccc(-c2ccc(S(=O)(=O)Nc3ncccn3)cc2)o1)c1cc2ccccc2cc1O | 18%
COc1ccc(-n2cccc2/C=C2\C(=N)N3N=C(c4ccco4)SC3=NC2=O)cc1 | 3.7% (inactive)
CCOc1ccc(NC(=O)c2cccc(-n3cccc3)c2)cc1S(=O)(=O)N1CCOCC1 | 6.1% (inactive)
c1ccc(CSc2nnc(-c3ccco3)c(-c3ccco3)n2)cc1 | 14% (inactive)
COC(=O)c1ccccc1NCc1cc(=O)oc2cc(O)c(O)cc12 | 14% (inactive)
Cc1c(Cl)cccc1NS(=O)(=O)c1ccc2c(c1)C1C=CCC1C(c1ccc(C(=O)O)cc1)N2 (stereo not drawn) | 0% (inactive)
COc1ccc(Cc2nnc(NC(=O)Cc3cccs3)s2)cc1OC | 0% (inactive)
C=CCn1c(SCC(=O)c2ccc(O)c(O)c2)nnc1-c1cccnc1 | 3.5% (inactive)
c1coc(-c2nc(-c3ccco3)c(-c3ccco3)nc2-c2ccco2)c1 | 0% (inactive)
O=C(Cn1cnc2sc(-c3ccccc3)cc2c1=O)NCc1ccco1 | 3.6% (inactive)
O=C(O)COc1ccccc1C(Nc1ccccn1)c1cc(Cl)c2cccnc2c1O (stereo not drawn) | 5.1% (inactive)
O=[N+]([O-])c1cc(CN2CCCC2)c2cccnc2c1O | 1.7% (inactive)
CCc1sc(C(C2C(=O)CC(C)(C)CC2=O)C2C(=O)CC(C)(C)CC2=O)cc1[N+](=O)[O-] | 3.5% (inactive)
COc1ccc(NC(=O)CN(C)C(=O)c2cc3c(s2)CCC3)cc1 | 1.8% (inactive)
